Laboratory results from patent publication US20240082331A1, “ANTI-OBESITY COMPOSITION CONTAINING, AS ACTIVE INGREDIENT, MORINGA OLEIFERA FERMENTATION PRODUCT PREPARED USING NOVEL MONASCUS PURPUREUS SL1” (MBIOMETHERAPEUTICS CO., LTD., priority 2021, published 2024).

System: 3T3-L1 preadipocytes
Assay: Inhibition of adipocyte differentiation (AdipoRed assay)
Type: cell-based, mice
Details: FIG. 3
Procedure: Preadipocytes (3T3-L1) from mice were purchased from ATCC (American Type Culture Collection). DMEM culture medium, Trypsin/EDTA, FBS (fetal bovine serum), and BCS (Bovine calf serum) were purchased from Gibco (Invitrogen corporation). AdipoRed assay reagent for measurement was purchased from Cambrex. Specifically, 3T3-L1 preadipocytes were cultured in DMEM medium containing 10% BCS and antibiotics, and maintained in a CO 2 incubator with 5% carbon dioxide supply. The cells were seeded at a concentration of 1×10^6 cells in a 96-well plate and cultured until they reached 100% confluency. To measure adipocyte differentiation, the cells were treated with MD medium (0.5 mM 3-isobutyl-1-methylxanthine and 1 μM dexamethasone). After 2 days, the medium was replaced with DMEM medium containing 10% FBS, and further cultured for 6 days. Moringa powder and fermented Moringa extract were treated at various concentrations. […] After 10 minutes, fluorescence intensity was measured using a fluorescence intensity reader. Subsequently, the inhibitory effect on adipocyte differentiation in the six compounds isolated in Example 2 was measured. […]

Structure (SMILES): CC(=O)OC[C@H]1O[C@@H](Oc2c(-c3ccc(O)cc3)oc3cc(O)cc(O)c3c2=O)[C@H](O)[C@@H](O)[C@@H]1O [MOFE-16-5, 6″-O-acetyl astragalin]
- adipocyte differentiation inhibition activity of isolated compounds: excellent adipocyte differentiation inhibition activity
